The text below walks through data of patent US20210355086A1, “PROCESS FOR PREPARING A NOVEL PHENICOL ANTIBACTERIAL AGENT” (Zoetis Services LLC, priority 2018, published 2021).

Molecules are shown by their SMILES.

In assay [1] the test system is M. haemolytica (strain 34195). Briefly: M. haemolytica trans-tracheal challenge study in Holstein/Holstein cross cattle. The settings on record: for back transform LSmean percent lung lesions / mortality: end of study (6 days).
The test system of assay [2] is Gram-positive bacteria and Gram-negative bacteria. The settings on record: background statement; cited from earlier work.
In assay [3] the test system is A3579 (OSU-012103-BHI) strain of Mannheimia haemolytica. Kind of assay: Mannheimia haemolytica trans-tracheal challenge BRD study in dairy calves. The format is in vivo. The settings on record: for percentage of lung lesion at necropsy, upper range value: control about 45%. As for the experimental part: In one study, healthy dairy calves (N=15/group; 85-140 kg) were trans-tracheally infected -2 to -1 days with the […] (OSU-012103-BHI) strain of Mannheimia haemolytica. The challenge dose ranged from about […] to 4.9×10^8 CFU. On Day 0, BRD symptomatic animals received a single subcutaneous dose of saline (control) or test (20 or 40 mg/kg) compound. At necropsy, control animals presented with an upper range of lung lesions of about 45%. […] Therefore, a single dose of the Formula (1) compound administered subcutaneously was effective for the treatment of BRD caused by M. haemolytica in dairy calves.

Assay [4] deals with naturally occurring BRD infection. Kind of assay: Naturally occurring BRD infection treatment study in cattle. Conditions: for treatment success based on respiratory symptoms and attitude: control about 20%. Format: in vivo, cattle (mixed beef and/or dairy breeds). On the procedure:
In a second study, cattle (mixed beef and/or dairy breeds; 180-270 kg) were treated from a naturally occurring BRD infection. Animals (n=40/group) received a single subcutaneous dose of saline (control) or test (15 mg/kg or 20 mg/kg) compound. Overall, treatment success, based on respiratory symptoms (rate, mucopurulent nasal or ocular discharge, open mouth breathing) and attitude (alert, stimuli response time, muscle weakness, ataxia, swaying) was about 37% and 47% for the 15 mg/kg and 20 mg/kg dose, respectively. In contrast, control animal success was about 20%.

The mark [5] stands for this setting: T03, positive control, dose not given, subcutaneously 4-6 hours post challenge.
Setting [6] is: 40 mg/kg (T02, T05) subcutaneously 4-6 hours post challenge, saline T01 35.1%.
[7] abbreviates: 40 mg/kg (T02, T05) subcutaneously 4-6 hours post challenge, saline T01 53.3%.

On to `CCN1CCN(c2cc3c(cc2F)c(=O)c(C(=O)O)cn3C2CC2)CC1` [Baytril, enrofloxacin, reference compound], for which, in assay [1] (setting [5]), the “back transform LSmean percent lung lesions” value turned out to be 9.1% and the mortality came to 0%.

Take `CS(=O)(=O)c1ccc([C@@H](O)[C@@H](CF)NC(=O)C(Cl)Cl)cc1` [Nuflor, florfenicol, reference compound]: in assay [1] (setting [6]), the “back transform LSmean percent lung lesions” value is on record as 32.1%. The compound also displayed a mortality in assay [1] (setting [7]) of 46.7%. For the same compound, the “antibacterial activity relative to thiamphenicol” value in assay [2] is on record as “up to 10 times”.

Regarding `CS(=N)(=O)c1ccc(-c2ccc([C@@H](O)[C@@H](CF)NC(=O)C(F)F)cc2)cn1` (stereo partly drawn) [Formula (1) compound, 2,2-difluoro-N-((1R,2S)-3-fluoro-1-hydroxy-1-(4-(6-(S-methylsulfonimidoyl)pyridin-3-yl)phenyl)propan-2-yl)acetamide], the “back transform LSmean percent lung lesions” value in assay [1] (setting [6]) was 6.8%; in assay [1] (T04, 20 mg/kg subcutaneously 4-6 hours post challenge, saline T01 35.1%) it was 13.3%. Also, the mortality is listed as 0% in assay [1] (setting [7]) and 0% in assay [1] (T04, 20 mg/kg subcutaneously 4-6 hours post challenge, saline T01 53.3%). Also, the “percent lung lesions compared with T03 (Baytril)” value in assay [1] (T04 (20 mg/kg) and T05 (40 mg/kg)) was “not different”. In addition, the “percentage of lung lesion at necropsy, upper range value” in assay [3] (20 mg/kg single subcutaneous dose on Day 0) is “about 12%”; in assay [3] (40 mg/kg single subcutaneous dose on Day 0), approximately 8%. Further, the “treatment of BRD caused by M. haemolytica (conclusion)” value in assay [3] (single dose administered subcutaneously, dairy calves) is listed as “effective”. Besides, the “treatment success based on respiratory symptoms and attitude” value is recorded as “about 37%” in assay [4] (15 mg/kg single subcutaneous dose) and approximately 47% in assay [4] (20 mg/kg single subcutaneous dose). Also, the “treatment effect in cattle with natural BRD infections (conclusion)” value in assay [4] (single subcutaneous dose 15 or 20 mg/kg) is recorded as “significant treatment effect”.

As a reminder, the mortality is the percentage killed. A higher mortality goes with fewer survivors.
